Several values for one entry are separate records, joined by “and”; a condition that tells them apart may be missing. Equal entries are not always repeated. Where a SMILES comes first, the peptide text is derived from it. Bridges are numbered along the chain shown (N, C = ends). Where no end group is shown, it is not given here. [ ]: non-standard residue; d: D form. S5 = C=CCCC[C@](C)(N)C(=O)O Bounds are passed on as bounds.

In one series the test system is sheep red blood cells. The series is described as follows: Hemolysis assay. The format is cell-based. As to conditions: sheep RBC in PBS pH 7.4, 37°C, 30 min, absorbance 405 nm, relative to 1% Triton-X-100, average of three independent measurements. The procedure:
Sheep RBC (200 μl) were pelleted (3,500 rpm for 5 min), washed three times with PBS buffer (PBS 10 mM and 150 mM NaCl, pH 7.4). The cells were then diluted in PBS buffer (10 ml), divided into 50 parts into 1.5 ml tubes, and pelleted by centrifugation. Various concentrations of peptide solutions (200 μl) were added to the cells and incubated with shaking (165 rpm, 37°C) for 30 min. The cells were pelleted by centrifugation (3,500 rpm for 5 min). Then, 100 μl of supernatant from each tube was collected into a clear 96-well plate, and the absorbance of the released hemoglobin was measured with a plate reader spectrophotometer (Microplate Reader Biotek, Winooski, VT, United States) at 405 nm. Hemolysis was determined relative to the negative control (PBS) and the positive control (1% v/v Triton-X-100 that lyses 100% of RBC). The percentage of hemolysis was determined using the following equation:
where A0 is the absorbance intensity of the RBC in buffer (background), and A and A100 are the absorbance intensities of the RBS in the presence of peptides and Triton X-100, respectively.The tests were performed with duplicate samples, and the average values of three independent measurements were recorded.

Series [1] concerns HEK 293 cells. Put plainly: Cytotoxicity assay (MTT). The format is cell-based, human. The settings on record: n = 3. The procedure:
The HEK 293 cells were seeded at a density 2 × 10^4 per well on a 96-well plate and incubated in high glucose DMEM medium (Lonza) supplemented with 10% FBS and 50 U/ml of penicillin–streptomycin at 37°C in 5% CO2. After 24 h, cells were covered with a fresh medium containing tested peptides at different concentrations (4, 8, 16, and 32 μM). After 24 or 48 h of incubation, cells viability was tested using MTT [3-(4,5-dimethylthiazol-2-yl)-2,5-diphenyltetrazolium bromide] (Merck). Briefly, 10 μl of 5 mg/ml MTT was added to each well and incubated for 4 h. Formazan produced from MTT was solubilized during overnight incubation in 100 μl of 10% SDS in 0.01 M HCl. Absorbance at 590 nm was measured using Microplate Reader Biotek (Winooski, VT, United States). The experiment was performed in triplicates.

Series [2] concerns HEK 293 cells. The series is described as follows: DAPI staining, confocal microscopy of cell morphology. It counts as cell-based, human. As to conditions: HEK 293, 24 h, 64 μM of anoplin, 8–32 μM of derivatives (32 μM of anoplin[2-6]), confocal microscope. The procedure: 1 × 10^5 cells were seeded into coverslips and incubated for 24 h. The cells were then treated with anoplin (64 μM) or its derivatives (8–32 μM) for 24 h. Next, cells were washed with PBS and fixed in 4% PFA for 15 min at room temperature. After three washes with PBS, cells were stained with DAPI (4′,6-diamidino-2-phenylindole, dihydrochloride; Boster) for 5 min (as indicated in the instruction). Coverslips with cells were washed three times and mounted on a glass microscope slide using a Dako Fluorescence Mounting Medium. Images were acquired with Axio Imager Z2 LSM 700 Zeiss confocal microscope.

For the next series, the system named is trypsin. The series is described as follows: Trypsin digestion assay. It counts as in vitro ADME. The settings on record: trypsin:peptide 1:1333, 0.1 M NH4HCO3 pH 8.0, 37°C, RP-HPLC peak area, performed thrice; for stability against trypsin (comparison in words): up to 8 min. The procedure: 250 μl of peptide solution in ammonium bicarbonate buffer (0.1 M NH4HCO3, pH 8.0) and an appropriate amount of trypsin (Sigma-Aldrich) solution in water were incubated at 37°C with rapid shaking (600 rpm). Trypsin and peptides were mixed in the ratio (1:1333; [Luong et al., 2017b]). After 2, 4, 6, and 8 min of incubation, 60 μl of digestion mixture was taken and treated with 60 μl of a solution of 50% acetonitrile containing 1% TFA to stop the digestion. Peptide degradation was analyzed with RP-HPLC using analytical methods to assess peptide purity (see subsection Synthesis of stapled anoplins). The results were calculated as the percentage of peptide peak of area degradation. The total area of every peak was designated for experiments without trypsin. Each of the experiments was performed thrice.

For the next series, the system named is E. coli K12 MG1655. The settings on record: cation-adjusted MHB, ~5 × 10^5 CFU/ml, 37°C, 19 h + 1 h resazurin, OD600, at least three replicates for peptides, one for antibiotics. Background: Resazurin is reduced to fluorescent resorufin, in cell work by metabolically active cells.
A further series relates to E. coli O157:H7. As to conditions: cation-adjusted MHB, ~5 × 10^5 CFU/ml, 37°C, 19 h + 1 h resazurin, OD600, at least three replicates for peptides, one for antibiotics.
For a further series, the system named is E. coli 1841/06 ESBL+. The settings on record: cation-adjusted MHB, ~5 × 10^5 CFU/ml, 37°C, 19 h + 1 h resazurin, OD600, at least three replicates for peptides, one for antibiotics.
The next series relates to E. coli WR 3551/98 ESBL+. The settings on record: cation-adjusted MHB, ~5 × 10^5 CFU/ml, 37°C, 19 h + 1 h resazurin, OD600, at least three replicates for peptides, one for antibiotics.
Another series has as its system P. aeruginosa PAO1. The settings on record: cation-adjusted MHB, ~5 × 10^5 CFU/ml, 37°C, 19 h + 1 h resazurin, OD600, at least three replicates for peptides, one for antibiotics.
The test system of the next series is P. aeruginosa ATCC 27853. As to conditions: cation-adjusted MHB, ~5 × 10^5 CFU/ml, 37°C, 19 h + 1 h resazurin, OD600, at least three replicates for peptides, one for antibiotics.
A further series relates to S. typhimurium LT2. The settings on record: cation-adjusted MHB, ~5 × 10^5 CFU/ml, 37°C, 19 h + 1 h resazurin, OD600, at least three replicates for peptides, one for antibiotics.
Another series deals with S. aureus ATCC 29213. The settings on record: cation-adjusted MHB, ~5 × 10^5 CFU/ml, 37°C, 19 h + 1 h resazurin, OD600, at least three replicates for peptides, one for antibiotics.
The subject of series [3] is S. aureus ATCC BAA1720 MRSA. As to conditions: cation-adjusted MHB, ~5 × 10^5 CFU/ml, 37°C, 19 h + 1 h resazurin, OD600, at least three replicates for peptides, one for antibiotics.
In the next series the test system is B. subtilis 168. As to conditions: cation-adjusted MHB, ~5 × 10^5 CFU/ml, 37°C, 19 h + 1 h resazurin, OD600, at least three replicates for peptides, one for antibiotics.

Take `CC[C@H](C)[C@@H]1NC(=O)[C@@](C)(NC(=O)[C@H](CCCCN)NC(=O)[C@H](CC(C)C)NC(=O)[C@H](CC(C)C)NC(=O)CN)CCCC=CCCC[C@@](C)(C(=O)N[C@@H](CC(C)C)C(N)=O)NC(=O)[C@H]([C@@H](C)O)NC(=O)[C@H](CCCCN)NC1=O` [anoplin[5-9]] (H-GLLK[S5]IKT[S5]L-NH2; staple 5-9): the Hemolytic activity is listed as 6.5% with sheep red blood cells (4 μM peptide); 16.6% in the series on sheep red blood cells (8 μM peptide); 29.8% in the series on sheep red blood cells (16 μM peptide); 43.2% in the series with sheep red blood cells (32 μM peptide, listed as Anoplin[5-9]); 43% in the series on sheep red blood cells (32 μM peptide, listed as anoplin [5-9]); 62.7% with sheep red blood cells (64 μM peptide). Moreover, the dead cells entry in the series on HEK 293 cells [1] (HEK 293, 16 μM peptide) was “approximately 60%”. Also, in the series with HEK 293 cells [1] (HEK 293, 32 μM peptide), the “effect on living cells” value is listed as “nearly eliminated all living cells”. In addition, in the series on HEK 293 cells [2], the morphology of cells entry is “altered cell appearance and the presence of cellular debris”. Moreover, in the series on trypsin, the “stability against trypsin (comparison in words)” value is “significantly higher stability against trypsin”. Moreover, the MIC (as a rule, the smallest concentration in the dilution series that meets the test's criterion for growth inhibition) in the series on E. coli K12 MG1655 was 16 µM; in the series with E. coli O157:H7, 8 µM; in the series on E. coli 1841/06 ESBL+, 8 µM; in the series on E. coli WR 3551/98 ESBL+ it was 16 µM; in the series on P. aeruginosa PAO1 it was 16 µM; in the series with P. aeruginosa ATCC 27853 it was 32 µM. Also, the minimal inhibitory concentration (MIC) is 32 µM in the series on S. typhimurium LT2, 4 µM in the series on S. aureus ATCC 29213, 4 µM in series [3] and 4 µM with B. subtilis 168.

GLLKRIKTLL-NH2 [anoplin]: the Hemolytic activity in the series with sheep red blood cells (4 μM peptide) is 0.5%; with sheep red blood cells (8 μM peptide), 1.3%; in the series on sheep red blood cells (16 μM peptide), 0.7%; with sheep red blood cells (32 μM peptide), 4% and 0.6%; in the series with sheep red blood cells (64 μM peptide), 2.3%. Besides, in the series with HEK 293 cells [1] (HEK 293, 4-32 μM peptide, 24 and 48 h of treatment), the “effect on cell viability compared to untreated control cells” value is recorded as “no significant effect on cell viability”. In addition, in the series with HEK 293 cells [2], the morphology of cells result is on record as “not altered”. For the same compound, in the series on trypsin (600 rpm, sampled at 2, 4, 6, 8 min), the “time of incubation with trypsin to complete decay of the peptide peak” value was 4 to 6 min. For the same compound, the MIC stood at 32 µM in the series with E. coli K12 MG1655; 64 µM in the series with E. coli O157:H7; 64 µM in the series on E. coli 1841/06 ESBL+; 64 µM in the series with E. coli WR 3551/98 ESBL+; 16 µM with P. aeruginosa PAO1; 32 µM in the series with P. aeruginosa ATCC 27853. For the same compound, the MIC is 64 µM with S. typhimurium LT2, no less than 64 µM in the series with S. aureus ATCC 29213, no less than 64 µM in series [3] and 16 µM with B. subtilis 168.

For the compound polymyxin B, the minimal inhibitory concentration (MIC) was 0.25 µM in the series with E. coli K12 MG1655; 0.5 µM in the series with E. coli O157:H7; 0.25 µM with E. coli 1841/06 ESBL+; 0.5 µM in the series on E. coli WR 3551/98 ESBL+; 0.5 µM with P. aeruginosa PAO1; 0.25 µM in the series on P. aeruginosa ATCC 27853. Further, the MIC is 0.5 µM in the series on S. typhimurium LT2, no less than 64 µM in the series on S. aureus ATCC 29213, no less than 64 µM in series [3] and 2 µM in the series on B. subtilis 168.

Take `NC[C@H]1O[C@H](O[C@H]2[C@H](O)[C@@H](O[C@H]3O[C@H](CO)[C@@H](O)[C@H](N)[C@H]3O)[C@H](N)C[C@@H]2N)[C@H](O)[C@@H](O)[C@@H]1O` [kanamycin]: the MIC in the series with E. coli K12 MG1655 was 8 µM; in the series on E. coli O157:H7, 2 µM; in the series on E. coli 1841/06 ESBL+ it was no less than 64 µM; in the series on E. coli WR 3551/98 ESBL+, no less than 64 µM; in the series on P. aeruginosa PAO1 it was no less than 64 µM; in the series with P. aeruginosa ATCC 27853, no less than 64 µM. The minimum inhibitory concentration (MIC) with S. typhimurium LT2 was no less than 64 µM; in the series on S. aureus ATCC 29213, 4 µM; in [3] it was no less than 64 µM; with B. subtilis 168 it was 0.25 µM.

As to `C=CCCC[C@](C)(NC(=O)[C@H](CCCCN)NC(=O)[C@H](CC(C)C)NC(=O)[C@H](CC(C)C)NC(=O)CN)C(=O)N[C@H](C(=O)N[C@@H](CCCCN)C(=O)N[C@H](C(=O)N[C@@](C)(CCCC=C)C(=O)N[C@@H](CC(C)C)C(N)=O)[C@@H](C)O)[C@@H](C)CC` [anoplinS5(5,9)] (H-GLLK[S5]IKT[S5]L-NH2), the Hemolytic activity with sheep red blood cells (4 μM peptide) was determined as 6.7%; in the series with sheep red blood cells (8 μM peptide) it was 7.2%; in the series on sheep red blood cells (16 μM peptide), 8.9%; with sheep red blood cells (32 μM peptide) it was 11.9%; with sheep red blood cells (64 μM peptide), 14.2%. Moreover, in the series on HEK 293 cells [2], the morphology of cells entry was “altered cell appearance and the presence of cellular debris”. In addition, the “stability against trypsin (comparison in words)” value with trypsin was “significantly higher stability against trypsin”; in the series on trypsin (listed as S5(5-9) peptide), “highest enzymatic resistance”. The MIC with E. coli K12 MG1655 is 64 µM; in the series with E. coli O157:H7, 32 µM; in the series on E. coli 1841/06 ESBL+ it was 32 µM; in the series with E. coli WR 3551/98 ESBL+ it was 64 µM; with P. aeruginosa PAO1, 64 µM; in the series with P. aeruginosa ATCC 27853, no less than 64 µM. In addition, the minimal inhibitory concentration (MIC) was no less than 64 µM with S. typhimurium LT2, 8 µM in the series with S. aureus ATCC 29213, 8 µM in [3] and 8 µM with B. subtilis 168.

Values taken from publication PMC8710804, “Stapled Anoplin as an Antibacterial Agent” (Frontiers in Microbiology, 2021).
